Literature values in patent publication US20250093362A1, “HIGH-THROUGHPUT ENGINEERING OF MOLECULAR GLUES” (Frontier Medicines Corporation, priority 2021, published 2025).

Molecular target: CDK12-cyclin K and CUL4 adaptor protein DDB1 (Homo sapiens, UniProt Q16531+Q9NYV4)
Details: analog of CR8 lacking a single methylene group; Nat. 2020, 585 (7824), 293

CDK12-cyclin K and CUL4 adaptor protein DDB1, sequence (Q9NYV4 713-1052 limits assumed): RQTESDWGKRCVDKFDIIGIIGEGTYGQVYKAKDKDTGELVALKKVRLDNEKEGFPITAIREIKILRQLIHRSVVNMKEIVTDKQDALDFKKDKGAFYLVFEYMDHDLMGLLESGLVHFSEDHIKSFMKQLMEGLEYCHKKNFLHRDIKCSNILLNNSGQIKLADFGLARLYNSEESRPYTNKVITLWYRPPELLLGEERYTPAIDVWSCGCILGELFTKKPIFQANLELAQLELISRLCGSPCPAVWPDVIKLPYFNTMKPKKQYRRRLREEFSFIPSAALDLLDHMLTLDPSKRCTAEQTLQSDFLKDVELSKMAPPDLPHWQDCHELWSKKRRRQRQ
CDK12-cyclin K and CUL4 adaptor protein DDB1, sequence (O75909 1-267 partner limits assumed): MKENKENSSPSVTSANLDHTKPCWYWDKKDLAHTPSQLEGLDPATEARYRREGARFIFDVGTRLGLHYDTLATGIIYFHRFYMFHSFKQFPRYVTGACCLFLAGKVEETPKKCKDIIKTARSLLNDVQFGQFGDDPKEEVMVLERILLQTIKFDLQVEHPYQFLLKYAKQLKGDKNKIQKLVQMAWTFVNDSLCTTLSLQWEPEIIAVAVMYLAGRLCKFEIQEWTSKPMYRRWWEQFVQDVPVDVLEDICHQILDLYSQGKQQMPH
CDK12-cyclin K and CUL4 adaptor protein DDB1, sequence (Q16531 whole entry): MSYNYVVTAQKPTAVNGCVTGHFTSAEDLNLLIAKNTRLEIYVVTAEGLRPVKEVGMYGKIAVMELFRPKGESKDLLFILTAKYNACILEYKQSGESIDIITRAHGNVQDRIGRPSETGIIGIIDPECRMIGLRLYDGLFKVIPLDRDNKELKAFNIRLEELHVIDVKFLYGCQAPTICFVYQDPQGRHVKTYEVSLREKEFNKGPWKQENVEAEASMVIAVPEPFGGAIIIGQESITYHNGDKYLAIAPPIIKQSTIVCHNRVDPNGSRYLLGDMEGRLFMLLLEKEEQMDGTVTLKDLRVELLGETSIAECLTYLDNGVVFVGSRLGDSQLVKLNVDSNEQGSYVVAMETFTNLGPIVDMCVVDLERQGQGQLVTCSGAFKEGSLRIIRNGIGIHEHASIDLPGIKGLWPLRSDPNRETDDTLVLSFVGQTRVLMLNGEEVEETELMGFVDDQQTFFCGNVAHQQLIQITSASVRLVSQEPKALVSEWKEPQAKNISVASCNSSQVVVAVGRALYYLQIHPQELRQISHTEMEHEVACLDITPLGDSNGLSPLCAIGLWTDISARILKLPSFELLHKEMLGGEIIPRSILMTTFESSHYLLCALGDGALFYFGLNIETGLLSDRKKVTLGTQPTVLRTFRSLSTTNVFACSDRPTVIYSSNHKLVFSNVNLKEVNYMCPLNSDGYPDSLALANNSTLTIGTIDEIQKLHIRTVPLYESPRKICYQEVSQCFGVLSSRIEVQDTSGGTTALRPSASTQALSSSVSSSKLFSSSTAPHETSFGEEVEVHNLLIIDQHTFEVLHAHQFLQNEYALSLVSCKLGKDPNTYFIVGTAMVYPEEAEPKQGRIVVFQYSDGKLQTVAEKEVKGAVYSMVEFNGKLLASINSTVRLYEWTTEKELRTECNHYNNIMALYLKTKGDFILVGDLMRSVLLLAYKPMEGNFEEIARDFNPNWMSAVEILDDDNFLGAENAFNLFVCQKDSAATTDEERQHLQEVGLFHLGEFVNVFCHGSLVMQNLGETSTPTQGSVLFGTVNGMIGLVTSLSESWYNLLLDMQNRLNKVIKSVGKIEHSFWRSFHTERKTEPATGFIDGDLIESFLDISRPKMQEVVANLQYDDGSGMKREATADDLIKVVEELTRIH

## CC[C@H](CO)Nc1nc(Nc2ccc(-c3ccccn3)cc2)c2ncn(C(C)C)c2n1 [DRF053]
  driving formation of the ternary complex of CDK12-cyclin K and DDB1: ineffectual
